What all share (type): cell-based
The target of assay [1] is T1, GPR54 (Homo sapiens, UniProt Q969F8). Nature of the assay: Inositol phosphate (IP) stimulation assay in CHO/gpr-54 cells. The following applies: CHO cells stably-expressing human gpr-54. Further details: G. Vassart, Univ; Brussels.
Procedure: Inositol-3-phoshate Stimulation Assay—Cell monolayers had 0.5 mls HEPES modified DMEM supplemented with 1% Penicillin/Streptomycin for 30 mins at 37° C. to block IP3 breakdown. Cells were then stimulated with 0.5 mls Kisspeptin-10 and analogues (10 pM-1 uM) diluted at 1:1000 in the above media for 1 hr at 37° C., then in 10 mM Formic acid at 4° C. for 1 hr to lyse cells. Lysate was then transferred to plastic tubes containing 0.5 mls Dowex resin to bind the radioactive IP3 and the resin was then washed with 1 ml H2O. The resin was then washed with 60 mM NH4 formate/5 mM Sodium tetraborate followed by 1M NH4 formate/0.1M Formic acid to release the bound radiation. Then 800 μls of the radioactive solution were transferred to scintillation vials containing 2.5 mls scintillation fluid and radioactivity counted on a Beta counter for 60 seconds.
IP stimulation refers to intrinsic residual agonist activity where estimateable.
The cells were maintained in Dulbecco's modified Eagle's medium (DMEM; Sigma) supplemented with 10% fetal calf serum, 2% glutamine and 1% penicillin (10,000 units/ml)/streptomycin (10,000 mg/ml) at 37° C. in a humidified 5% CO2 atmosphere.
Prior to stimulation CHO/gpr-54 cells were washed twice with Dulbecco's phosphate-buffered saline (DPBS; without calcium or magnesium) then incubated overnight with ^3H-myoinositol, labeled HEPES-modified DMEM with 1% penicillin/streptomycin at 37° C. HEPES-modified DMEM supplemented with 1% penicillin/streptomycin and 1% lithium chloride (0.5 ml) was added to cells for 30 min at 37° C. to block IP hydrolysis. Cells were then stimulated with 0.5 ml kisspeptin-10 and analogues (10 pM-1 μM) diluted at 1:100 in the above media for 1 h at 37° C., then with 10 mM formic acid at 4° C. for 1 h to lyse cells. Lysates were transferred to plastic tubes containing 0.5 ml Dowex resin to bind the radioactive IP and the resin was then washed with 1 ml water. The resin was next washed with 60 mM ammonium formate/5 mM sodium tetraborate. followed by 1M ammonium formate/0.1M formic acid to release the bound radiation. Then 800 μl of the radioactive solution were transferred to scintillation vials containing 2.5 ml scintillation fluid and radioactivity counted on a Beta counter for 60 sec. Experiments were repeated 3-5 times. IP production was plotted as mean values±SEM and analyzed by using a Student's t-Test (p≧0.05).
Assay [2] has as its target T1, GPR54. Nature of the assay: Inositol phosphate (IP) antagonism assay: inhibition of 10 nM kisspeptin-10 stimulation of IP in CHO/gpr-54 cells. Further details: G. Vassart, Univ; Brussels. The note with it: CHO cells, 10 nM kisspeptin-10; for IC50: unit inferred, given in M. As to the method:
Inositol-3-phoshate Antagonistic Assay—Cell monolayers had 0.5 mls HEPES modified DMEM supplemented with […] for 30 mins at 37° C. to block IP3 breakdown. Cells were then stimulated with 0.25 mls 10 nM Kisspeptin-10 plus 0.25 mls of 10 nM Kisspeptin-10 or analogues (10 pM-10 uM) diluted at 1:1000 in the above media for 1 hr at 37° C., then in 10 mM Formic acid at 4° C. for 1 hr to lyse cells. Lysate was then transferred to plastic tubes containing 0.5 mls Dowex resin to bind the radioactive IP3 and the resin was then washed with 1 ml H2O. The resin was then washed with 60 mM NH4 formate/5 mM Sodium tetraborate followed by 1M NH4 formate/0.1M Formic acid to release the bound radiation. Then 800 μls of the radioactive solution were transferred to scintillation vials containing 2.5 mls scintillation fluid and radioactivity counted on a Beta counter for 60 seconds.
Chinese hamster ovary (CHO) cells stably-expressing the human gpr-54 receptor (CHO/gpr-54) were obtained from Prof. G. Vassart, Univ. Brussels. The cells were maintained in Dulbecco's modified Eagle's medium (DMEM; Sigma) supplemented with 10% fetal calf serum, 2% glutamine and 1% penicillin (10,000 units/ml)/streptomycin ([…]) at 37° C. in a humidified 5% CO2 atmosphere.
Experiments were repeated 3-5 times. IP production was plotted as mean values±SEM and analyzed using a Student's t-Test ([…]).

Assay [3] deals with HUVECs (Human Umbilical Vein Endothelial Cells). Nature of the assay: Cell migration (wound healing) assay in HUVECs. The note with it: 22 hrs. The protocol: Human Umbilical Vein Endothelial Cells (HUVECs) isolated from neonatal umbilical cord were used as they endogenously express gpr-54, which is though to be involved in cell migration in the placenta. Chinese hamster ovary (CHO) cells which stably express the human gpr-54 receptor were used as a model cell line for wound healing assays. […] Complete media was added along with 1 nM Kisspeptin-10 for HUVECs and 100 nM Kisspeptin-10 for CHO cells, the optimal concentrations to inhibit cell migration (wound healing) in each cell type, in the presence and absence of antagonist 233, 234, 273 and 276 for HUVECs and 234 for CHOs. […] Cells were photographed on the axiovert 2000 at 20× magnification in phase contrast (Hori et al., 2001. Metastin suppresses the motility and growth of CHO cells transfected with its receptor. Biochem Biophys Res Commun 286, 958-963; Stafford et al., 2002, Identification and characterization of mouse metastasis-suppressor KiSS1 and its G-protein-coupled receptor. Cancer Res 62, 5399-5404).

This note sets out measurements from patent US8916681B2, “Compound, use and method” (Medical Research Council, priority 2007, dated 2014).

Broadly, the IC50 is the concentration that gives 50% inhibition.

Non-standard residues stand in square brackets, D forms with d. Residues, ends and D or L forms follow the SMILES beside them.

T1 sequence (Q969F8 whole entry): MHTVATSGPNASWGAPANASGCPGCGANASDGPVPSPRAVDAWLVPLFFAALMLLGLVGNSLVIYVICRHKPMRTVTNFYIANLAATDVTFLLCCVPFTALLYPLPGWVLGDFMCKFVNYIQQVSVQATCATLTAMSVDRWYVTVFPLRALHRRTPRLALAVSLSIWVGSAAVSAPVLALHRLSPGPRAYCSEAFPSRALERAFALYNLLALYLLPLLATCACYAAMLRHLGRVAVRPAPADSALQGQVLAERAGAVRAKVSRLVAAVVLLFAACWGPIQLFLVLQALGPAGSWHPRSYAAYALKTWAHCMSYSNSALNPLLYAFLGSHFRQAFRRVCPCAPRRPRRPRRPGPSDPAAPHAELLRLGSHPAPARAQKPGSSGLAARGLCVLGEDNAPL

On to `CC(=O)N[C@H](Cc1ccc(O)cc1)C(=O)N[C@@H](CC(N)=O)C(=O)N[C@@H](Cc1c[nH]c2ccccc12)C(=O)N[C@@H](CC(N)=O)C(=O)NCC(=O)N[C@@H](Cc1ccccc1)C(=O)NCC(=O)N[C@H](Cc1c[nH]c2ccccc12)C(=O)N[C@@H](CCCNC(=N)N)C(=O)N[C@@H](Cc1ccccc1)C(N)=O` [Peptide 230] (Ac-[dY]NWNGFG[dW]RF-NH2), for which the “stimulation of IP by the peptide alone” value on GPR54 [1] was “little or no stimulation”. In addition, half-maximal inhibition on GPR54 [2] (IC50) required 50 nM.

On to `CC(=O)N[C@@H](Cc1ccc(O)cc1)C(=O)N[C@H](CC(N)=O)C(=O)N[C@@H](Cc1c[nH]c2ccccc12)C(=O)N[C@@H](CC(N)=O)C(=O)NCC(=O)N[C@@H](Cc1ccccc1)C(=O)NCC(=O)N[C@H](Cc1c[nH]c2ccccc12)C(=O)N[C@@H](CCCNC(=N)N)C(=O)N[C@@H](Cc1ccccc1)C(N)=O` [Peptide 232] (Ac-Y[dN]WNGFG[dW]RF-NH2), for which, at GPR54 [1], the “stimulation of IP by the peptide alone” value is on record as “little or no stimulation”. The half-inhibitory concentration (IC50) at GPR54 [2] came out at 30 nM.

Turning to `CC(=O)N[C@@H](Cc1ccc(O)cc1)C(=O)N[C@@H](CC(N)=O)C(=O)N[C@@H](Cc1c[nH]c2ccccc12)C(=O)N[C@@H](CC(N)=O)C(=O)N[C@H](C)C(=O)N[C@@H](Cc1ccccc1)C(=O)NCC(=O)N[C@H](Cc1c[nH]c2ccccc12)C(=O)N[C@@H](CCCNC(=N)N)C(=O)N[C@@H](Cc1ccccc1)C(N)=O` [Peptide 233] (Ac-YNWN[dA]FG[dW]RF-NH2), the “inhibition of migration by 1 nM Kisspeptin in the presence of peptide” value in assay [3] was 10%. For the same molecule, the “stimulation of IP by the peptide alone” value on GPR54 [1] is reported as “little or no stimulation”. On GPR54 [2], this molecule returned an IC50 of 20 nM.

For `CC(=O)N[C@@H](Cc1ccc(O)cc1)C(=O)N[C@@H](CC(N)=O)C(=O)N[C@H](C)C(=O)N[C@@H](CC(N)=O)C(=O)NCC(=O)N[C@@H](Cc1ccccc1)C(=O)NCC(=O)N[C@H](Cc1c[nH]c2ccccc12)C(=O)N[C@@H](CCCNC(=N)N)C(=O)N[C@@H](Cc1ccccc1)C(N)=O` [Peptide 235] (Ac-YN[dA]NGFG[dW]RF-NH2), the “stimulation of IP by the peptide alone” value on GPR54 [1] is on record as “little or no stimulation”. The molecule also came in with an IC50 against GPR54 [2] of 10 nM.

For `CC(=O)N[C@@H](Cc1ccc(O)cc1)C(=O)N[C@H](C)C(=O)N[C@@H](Cc1c[nH]c2ccccc12)C(=O)N[C@@H](CC(N)=O)C(=O)NCC(=O)N[C@@H](Cc1ccccc1)C(=O)NCC(=O)N[C@H](Cc1c[nH]c2ccccc12)C(=O)N[C@@H](CCCNC(=N)N)C(=O)N[C@@H](Cc1ccccc1)C(N)=O` [Peptide 236] (Ac-Y[dA]WNGFG[dW]RF-NH2), the “stimulation of IP by the peptide alone” value on GPR54 [1] is listed as “little or no stimulation”. This molecule displayed an IC50 against GPR54 [2] of 50 nM.

Consider `CC(=O)N[C@H](C)C(=O)N[C@@H](CC(N)=O)C(=O)N[C@@H](Cc1c[nH]c2ccccc12)C(=O)N[C@@H](CC(N)=O)C(=O)N[C@H](CO)C(=O)N[C@@H](Cc1ccccc1)C(=O)NCC(=O)N[C@H](Cc1c[nH]c2ccccc12)C(=O)N[C@@H](CCCNC(=N)N)C(=O)N[C@@H](Cc1ccccc1)C(N)=O` [Peptide 273] (Ac-[dA]NWN[dS]FG[dW]RF-NH2), for which, in assay [3], the “inhibition of migration by 1 nM Kisspeptin in the presence of peptide” value is 10%. At GPR54 [2], the “Inhibition of IP stimulation by 10 nM Agonist: % Inhibition of Max” value (“Inhibition … % Inhibition of Max” below) is listed as 79% and the half-inhibitory concentration (IC50) worked out at 4 nM.

With `CC(=O)N[C@H](C)C(=O)N[C@@H](CC(N)=O)C(=O)N[C@@H](Cc1c[nH]c2ccccc12)C(=O)N[C@@H](CC(N)=O)C(=O)N1CCC[C@@H]1C(=O)N[C@@H](Cc1ccccc1)C(=O)NCC(=O)N[C@H](Cc1c[nH]c2ccccc12)C(=O)N[C@@H](CCCNC(=N)N)C(=O)N[C@@H](Cc1ccccc1)C(N)=O` [Peptide 275] (Ac-[dA]NWN[dP]FG[dW]RF-NH2), on GPR54 [2], the “Inhibition … % Inhibition of Max” value is given as 44% and the IC50 is more than 100 nM.

For the molecule `CC(=O)N[C@H](C)C(=O)N[C@@H](CC(N)=O)C(=O)N[C@@H](Cc1c[nH]c2ccccc12)C(=O)N[C@@H](CC(N)=O)C(=O)NCC(=O)N[C@@H](Cc1ccccc1)C(=O)NCC(=O)N[C@H](CC(C)C)C(=O)N[C@@H](CCCNC(=N)N)C(=O)N[C@@H](Cc1ccccc1)C(N)=O` [Peptide 276] (Ac-[dA]NWNGFG[dL]RF-NH2), at GPR54 [2], the “Inhibition … % Inhibition of Max” value is reported as 65%.

With `CC(=O)N[C@H](C)C(=O)N[C@@H](CC(N)=O)C(=O)N[C@@H](Cc1c[nH]c2ccccc12)C(=O)N[C@@H](CC(N)=O)C(=O)N[C@H](C)C(=O)N[C@@H](Cc1ccccc1)C(=O)NCC(=O)N[C@@H](CC(C)C)C(=O)N[C@@H](CCCNC(=N)N)C(=O)N[C@@H](Cc1ccccc1)C(N)=O` [Peptide 277] (Ac-[dA]NWN[dA]FGLRF-NH2), on GPR54 [2], the “Inhibition … % Inhibition of Max” value was determined as 57%.

As for `CC(=O)N[C@H](C)C(=O)N[C@@H](CC(N)=O)C(=O)N[C@@H](Cc1c[nH]c2ccccc12)C(=O)N[C@@H](CC(N)=O)C(=O)NCC(=O)N[C@@H](Cc1ccccc1)C(=O)NCC(=O)N[C@@H](CC(C)C)C(=O)N[C@H](CCCNC(=N)N)C(=O)N[C@@H](Cc1ccccc1)C(N)=O` [Peptide 278] (Ac-[dA]NWNGFGL[dR]F-NH2), at GPR54 [2], the “Inhibition … % Inhibition of Max” value is 47% and the IC50 is more than 200 nM.
